Source: patent US8779002B2, “Methods for treating a variety of diseases and conditions, and compounds useful therefor” (Salk Institute for Biological Studies, priority 2007, dated 2014)

Experiments:
JNK-1 = JNK-1 (Homo sapiens, UniProt P45983); assay: Protein kinase panel: JNK-1; assay type: biochemical; details: panel of 14 protein kinases
Excerpt: (§1) A panel of 14 protein kinases was screened against Cmpd CNB-001. […] In HT22 cells and primary cortical neurons, Cmpd CNB-001 blocked p38 and JNK phosphorylation caused by glutamate by about 30%, and inhibited cell death. The phosphorylation of the other tested kinases was not altered.

CREB = CREB phosphorylation; assay type: cell-based, mouse; design: key: + = positive result or enzyme activation
Excerpt: CREB activation has been linked to cell survival and accordingly, is considered to be a validated therapeutic target (Vaishnov, et al, Biochem. Biophys. Res. Commun. 307:855-860 (2003)). Similar to the concept of programmed cell death which involves transcription factors pivotal in switching on the nerve cell death program is the transcriptional control of programmed cell life. For example, recent studies of the activation of the CREB transcription factor in stroke models have shown that CREB is phosphorylated (and presumably activated) in neurons that survive this insult.
CREB phosphorylation in response to oxidative stress is evaluated in the presence of invention compounds. Glutamate is added to HT22 cells in the presence or absence of Cmpd CNB-001 (at 1 μM). The ratio of phosphorylated CREB to total CREB is then measured as a function of time. Furthermore, all of the HT22 cells die in the absence of Cmpd CNB-001, and over 90% live in the presence of Cmpd CNB-001.

p38 = p38 phosphorylation caused by glutamate; assay type: cell-based; details: HT22 cells and primary cortical neurons
Excerpt: as §1

Memory = assay: Memory, animal models (Table 2); design: key: + = positive result or enzyme activation; details: in vivo
JNK = JNK phosphorylation caused by glutamate; assay type: cell-based; details: HT22 cells and primary cortical neurons
Excerpt: as §1

Rabbit stroke = Rabbit stroke model; design: key: + = positive result or enzyme activation; details: in vivo
HT22 cells = assay: Chemical ischemia (iodoacetic acid) in HT22 mouse hippocampal cells; assay type: cell-based; design: key to In Vitro Ischemia, Mouse hippocampal cells: + = positive result or enzyme activation; details: for Cell death caused by treatment of HT22 cells with 20 μM IAA: 20 μM iodoacetic acid for 2 hr, MTT after 24 hr
Protocol: FIG. 2 illustrates the ability of invention compounds CNB-001 and J147 to protect nerve cells from chemical ischemia. HT22 cells were treated with 20 μM iodoacetic acid for 2 hr alone or in the presence of varying concentrations of CNB-001 or J147. % survival was confirmed by microscopy and measured after 24 hr by the MTT assay.
Most cell culture models of ischemia utilize primary cortical cultures that are exposed to some form of oxygen and glucose deprivation. While these assays may come closer to mimicking the in vivo conditions than assays employing neuronal cell lines, they have a number of problems that make them difficult to use for the routine screening of potential neuroprotective compounds. The most serious problem is that the condition needed to kill a fixed percentage of cells are highly variable from experiment to experiment, making it very difficult to get accurate values for neuroprotective activity. In order to circumvent this and other problems, a mouse nerve cell line was used in combination with chemical ischemia as a screen for potential neuroprotective drugs for ischemia. To induce chemical ischemia, iodoacetic acid (IAA), a well known, irreversible inhibitor of the glycolytic enzyme glyceraldehyde 3-phosphate dehydrogenase (G3PDH) (see B. S. Winkler et al., Modulation of the Pasteur effect in retinal cells: implications for understanding compensatory metabolic mechanisms, in Exp Eye Res 76 (2003) 715-723) was used in combination with the HT22 mouse hippocampal cell line. IAA has been used in a number of other studies to induce ischemia in nerve cells. The changes following IAA treatment of neural cells are very similar to changes which have been seen in animal models of CNS trauma and ischemia. These include alterations in membrane potential, breakdown of phospholipids, loss of ATP, and an increase in reactive oxygen species. A 2 hr treatment of the HT22 cells with 20 μM IAA induces over 90% cell death 20 hr later. […]

JNK-2 = JNK-2 (Homo sapiens, UniProt P45984); assay: Protein kinase panel: JNK-2; assay type: biochemical; details: panel of 14 protein kinases
Excerpt: as §1

Amyloid = Amyloid dissociation; design: key: + = positive result or enzyme activation
JNK-3 = JNK-3 (Homo sapiens, UniProt P53779); assay: Protein kinase panel: JNK-3; assay type: biochemical; details: panel of 14 protein kinases
Excerpt: as §1

[1] = tested on: double transgenic (mutated PS1 and APP) Alzheimer's mouse model; assay: Morris Water Maze in Alzheimer's mouse model; assay type: in vivo; details: in the food for 4 months at 100 ppm
Protocol: FIG. 7 illustrates that […] improves spatial learning and memory in the Morris Water Maze. A circular water tank four feet in diameter, containing water at 26-27° C., is made opaque with white pigment, and a platform placed in the NW quadrant. Mice were randomly introduced to the tank facing the wall in one of the other quadrants for a trial of 50 s or until they found the platform. Upon reaching the platform, or at the end of the 50 s, the mice were placed on the platform, the mice were left on the platform for 15 s. There were four trials per mouse each day for seven consecutive days. The data are presented as the average time to reach the platform (escape latency) of the 4 daily trials for each group of mice. There are 3 groups of 5 mice each. One is wild type (circles), another is a double transgenic (mutated PS1 and APP) Alzheimer's mouse model (rectangle), and the third is the AD mouse plus J147 that has been in the food for 4 months at 100 ppm (diamond).

Sequence of JNK-3 (P53779 whole entry, species assumed): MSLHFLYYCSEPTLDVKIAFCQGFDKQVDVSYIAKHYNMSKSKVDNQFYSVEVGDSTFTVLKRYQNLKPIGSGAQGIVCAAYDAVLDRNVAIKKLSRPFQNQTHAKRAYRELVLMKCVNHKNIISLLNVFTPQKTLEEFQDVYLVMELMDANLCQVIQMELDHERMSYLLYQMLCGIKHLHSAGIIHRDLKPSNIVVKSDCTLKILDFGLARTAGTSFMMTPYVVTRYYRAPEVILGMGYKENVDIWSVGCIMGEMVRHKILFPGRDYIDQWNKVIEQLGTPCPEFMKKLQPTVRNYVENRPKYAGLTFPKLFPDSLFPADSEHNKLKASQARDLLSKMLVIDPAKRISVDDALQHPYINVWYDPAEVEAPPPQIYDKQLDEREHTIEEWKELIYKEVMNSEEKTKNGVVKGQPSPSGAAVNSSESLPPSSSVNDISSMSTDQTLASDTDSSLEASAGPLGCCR
Sequence of JNK-2 (P45984 whole entry, species assumed): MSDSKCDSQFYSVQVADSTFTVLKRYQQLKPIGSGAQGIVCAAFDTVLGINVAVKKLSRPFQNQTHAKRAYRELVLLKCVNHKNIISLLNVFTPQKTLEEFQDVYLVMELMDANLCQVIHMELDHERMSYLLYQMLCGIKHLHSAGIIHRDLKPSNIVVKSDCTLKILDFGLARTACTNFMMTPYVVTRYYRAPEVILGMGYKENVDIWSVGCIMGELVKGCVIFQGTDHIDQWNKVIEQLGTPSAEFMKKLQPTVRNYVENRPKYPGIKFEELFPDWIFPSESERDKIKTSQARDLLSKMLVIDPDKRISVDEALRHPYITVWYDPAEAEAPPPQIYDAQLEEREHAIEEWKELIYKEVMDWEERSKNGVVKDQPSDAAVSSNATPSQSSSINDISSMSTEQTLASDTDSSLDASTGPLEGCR
Sequence of JNK-1 (P45983 whole entry, species assumed): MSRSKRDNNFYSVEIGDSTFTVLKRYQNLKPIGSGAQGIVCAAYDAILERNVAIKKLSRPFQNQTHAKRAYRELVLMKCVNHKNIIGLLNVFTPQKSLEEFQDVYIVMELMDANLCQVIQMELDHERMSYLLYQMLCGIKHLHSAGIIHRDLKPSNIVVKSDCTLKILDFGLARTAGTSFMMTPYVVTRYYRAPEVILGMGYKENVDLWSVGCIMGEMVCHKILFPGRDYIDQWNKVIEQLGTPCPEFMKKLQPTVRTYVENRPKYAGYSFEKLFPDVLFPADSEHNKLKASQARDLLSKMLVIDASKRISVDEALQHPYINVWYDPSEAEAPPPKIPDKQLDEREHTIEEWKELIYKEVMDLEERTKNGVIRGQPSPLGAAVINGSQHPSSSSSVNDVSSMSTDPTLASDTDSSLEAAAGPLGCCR

SMILES	Inhibition of kinase (JNK-1)	CREB (CREB)	Block of p38 phosphorylation caused by glutamate (p38)	Memory (Memory)	Memory, Animal (Memory)	Block of JNK phosphorylation caused by glutamate (JNK)	Animal Models, Rabbit stroke (Rabbit stroke)	In Vitro Ischemia, Mouse hippocampal cells (HT22 cells)	Cell death caused by treatment of HT22 cells with 20 μM IAA (HT22 cells)	Inhibition of kinase (JNK-2)	Amyloid Dissociation (Amyloid)	Inhibition of kinase (JNK-3)	Deficit in memory of AD mice relative to wild type (escape latency) [1]
COc1cc(/C=C/c2cc(/C=C/c3ccc(O)c(OC)c3)n(-c3ccccc3)n2)ccc1O [CNB-001]	None of the other enzymes that were assayed, including JNK-1 or JNK-2, were affected	+	about 30%	+	+	about 30%	+	+	can be prevented	None of the other enzymes that were assayed, including JNK-1 or JNK-2, were affected	+	partially inhibited	–
COc1cccc(/C=N/N(C(=O)C(F)(F)F)c2ccc(C)cc2C)c1 [Compound J147]	–	+	–	+	+	–	–	–	can be prevented	–	–	–	corrected
